# Assay results published in patent US20170190671A1, “BIS(ARYL)CATECHOL DERIVATIVES AS HERBICIDES” (E I DU PONT DE NEMOURS AND COMPANY, priority 2014, published 2017).
# Experiments:
# Format in all cases: in vivo
# rice (Oryza sativa) = test: Test B flooded paddy; conditions: 250 g ai/ha, Flood, 13 to 15 days, scale 0 (no effect) to 100 (complete control)
# Text: (§1) At time of treatment, test pots were flooded to 3 cm above the soil surface, treated by application of test compounds directly to the paddy water, and then maintained at that water depth for the duration of the test. Treated plants and controls were maintained in a greenhouse for 13 to 15 days, after which time all species were compared to controls and visually evaluated. […] A dash (-) response means no test result.
# [1] = system: barnyardgrass (Echinochloa crus-galli); test: Test B flooded paddy; conditions: 250 g ai/ha, Flood, 13 to 15 days, scale 0 (no effect) to 100 (complete control)
# Text: as §1
# [2] = system: sedge, umbrella (small-flower umbrella sedge, Cyperus difformis); test: Test B flooded paddy; conditions: 250 g ai/ha, Flood, 13 to 15 days, scale 0 (no effect) to 100 (complete control)
# Text: as §1
# [3] = system: ducksalad (Heteranthera limosa); test: Test B flooded paddy; conditions: 250 g ai/ha, Flood, 13 to 15 days, scale 0 (no effect) to 100 (complete control)
# Text: as §1
# kochia (Kochia scoparia) [4] = test: Test A postemergence; conditions: 0 to 100 scale
# Text: (§2) Seeds of plant species selected from barnyardgrass (Echinochloa crus-galli), kochia (Kochia scoparia), ragweed (common ragweed, Ambrosia elatior), Italian ryegrass (Lolium multiflorum), large (Lg) crabgrass (Digitaria sanguinalis), giant foxtail (Setaria faberii), morningglory (Ipomoea spp.), pigweed (Amaranthus retroflexus), velvetleaf (Abutilon theophrasti), wheat (Triticum aestivum), and corn (Zea mays) were planted into a blend of loam soil and sand and treated preemergence with a directed soil spray using test chemicals formulated in a non-phytotoxic solvent mixture which included a surfactant.
# (§3) At the same time, plants selected from these crop and weed species and also blackgrass (Alopecurus myosuroides), and galium (catchweed bedstraw, Galium aparine) were planted in pots containing the same blend of loam soil and sand and treated with postemergence applications of test chemicals formulated in the same manner. Plants ranged in height from 2 to 10 cm and were in the one- to two-leaf stage for the postemergence treatment. Treated plants and untreated controls were maintained in a greenhouse for approximately 10 days, after which time all treated plants were compared to untreated controls and visually evaluated for injury. Plant response ratings, summarized in Table A, are based on a 0 to 100 scale where 0 is no effect and 100 is complete control. A dash (-) response means no test result.
# [5] = system: Italian ryegrass (Lolium multiflorum); test: Test A postemergence; conditions: 0 to 100 scale
# Text: as §2, §3
# [6] = system: galium (catchweed bedstraw, Galium aparine); test: Test A postemergence; conditions: 0 to 100 scale
# Text: as §2, §3
# [7] = system: wheat (Triticum aestivum); test: Test A postemergence; conditions: 0 to 100 scale
# Text: as §2, §3
# [8] = system: pigweed (Amaranthus retroflexus); test: Test A postemergence; conditions: 0 to 100 scale
# Text: as §2, §3
# [9] = system: blackgrass (Alopecurus myosuroides); test: Test A postemergence; conditions: 0 to 100 scale
# Text: as §2, §3
# [10] = system: barnyardgrass (Echinochloa crus-galli); test: Test A postemergence; conditions: 0 to 100 scale
# Text: as §2, §3
# [11] = system: giant foxtail (Setaria faberii); test: Test A postemergence; conditions: 0 to 100 scale
# Text: as §2, §3
# [12] = system: ragweed (common ragweed, Ambrosia elatior); test: Test A postemergence; conditions: 0 to 100 scale
# Text: as §2, §3
# corn (Zea mays) = test: Test A postemergence; conditions: 0 to 100 scale
# Text: as §2, §3
# kochia (Kochia scoparia) [13] = test: Test A preemergence; conditions: for Plant response rating, Kochia: 0 to 100 scale; for Kochia plant response rating: 0 to 100 scale (0 no effect, 100 complete control)
# Text: as §2, §3
# [14] = system: Italian ryegrass (Lolium multiflorum); test: Test A preemergence; conditions: for Plant response rating, Ryegrass, Italian: 0 to 100 scale; for Ryegrass, Italian plant response rating: 0 to 100 scale (0 no effect, 100 complete control)
# Text: as §2, §3
# [15] = system: pigweed (Amaranthus retroflexus); test: Test A preemergence; conditions: for Plant response rating, Pigweed: 0 to 100 scale; for Pigweed plant response rating: 0 to 100 scale (0 no effect, 100 complete control)
# Text: as §2, §3
# [16] = system: barnyardgrass (Echinochloa crus-galli); test: Test A preemergence; conditions: for Plant response rating, Barnyardgrass: 0 to 100 scale; for Barnyardgrass plant response rating: 31 g ai/ha, 0 to 100 scale (0 no effect, 100 complete control)
# Text: as §2, §3
# [17] = system: giant foxtail (Setaria faberii); test: Test A preemergence; conditions: for Plant response rating, Foxtail, Giant: 0 to 100 scale; for Foxtail, Giant plant response rating: 0 to 100 scale (0 no effect, 100 complete control)
# Text: as §2, §3
# [18] = system: ragweed (common ragweed, Ambrosia elatior); test: Test A preemergence; conditions: for Plant response rating, Ragweed: 0 to 100 scale; for Ragweed plant response rating: 0 to 100 scale (0 no effect, 100 complete control)
# Text: as §2, §3
smiles,measurement,setting,value
N#Cc1cccc(Oc2ncc(Cl)cn2)c1Oc1ccc(C(F)(F)F)nc1 [Compound 13],"Plant response rating, Rice",rice (Oryza sativa),0
same,"Plant response rating, Barnyardgrass",[1],0
same,"Plant response rating, Sedge, Umbrella",[2],0
same,"Plant response rating, Ducksalad",[3],0
same,"Plant response rating, Kochia",kochia (Kochia scoparia) [4]; 125 g ai/ha,0
same,"Plant response rating, Kochia",kochia (Kochia scoparia) [4]; 500 g ai/ha,0
same,"Plant response rating, Ryegrass, Italian",[5]; 125 g ai/ha,0
same,"Plant response rating, Ryegrass, Italian",[5]; 500 g ai/ha,0
same,"Plant response rating, Galium",[6]; 125 g ai/ha,0
same,"Plant response rating, Galium",[6]; 500 g ai/ha,0
same,"Plant response rating, Wheat",[7]; 125 g ai/ha,0
same,"Plant response rating, Wheat",[7]; 500 g ai/ha,0
same,"Plant response rating, Pigweed",[8]; 125 g ai/ha,10
same,"Plant response rating, Pigweed",[8]; 500 g ai/ha,40
same,"Plant response rating, Blackgrass",[9]; 125 g ai/ha,0
same,"Plant response rating, Blackgrass",[9]; 500 g ai/ha,0
same,"Plant response rating, Barnyardgrass",[10]; 125 g ai/ha,0
same,"Plant response rating, Barnyardgrass",[10]; 500 g ai/ha,0
same,"Plant response rating, Foxtail, Giant",[11]; 125 g ai/ha,0
same,"Plant response rating, Foxtail, Giant",[11]; 500 g ai/ha,0
same,"Plant response rating, Ragweed",[12]; 125 g ai/ha,0
same,"Plant response rating, Ragweed",[12]; 500 g ai/ha,0
same,"Plant response rating, Corn",corn (Zea mays); 125 g ai/ha,0
same,"Plant response rating, Corn",corn (Zea mays); 500 g ai/ha,0
same,"Plant response rating, Kochia",kochia (Kochia scoparia) [13]; 125 g ai/ha,0
same,"Plant response rating, Kochia",kochia (Kochia scoparia) [13]; 500 g ai/ha,0
same,"Plant response rating, Ryegrass, Italian",[14]; 125 g ai/ha,0
same,"Plant response rating, Ryegrass, Italian",[14]; 500 g ai/ha,0
same,"Plant response rating, Pigweed",[15]; 125 g ai/ha,0
same,"Plant response rating, Pigweed",[15]; 500 g ai/ha,0
same,"Plant response rating, Barnyardgrass",[16]; 125 g ai/ha,0
same,"Plant response rating, Barnyardgrass",[16]; 500 g ai/ha,0
same,"Plant response rating, Foxtail, Giant",[17]; 125 g ai/ha,0
same,"Plant response rating, Foxtail, Giant",[17]; 500 g ai/ha,0
same,"Plant response rating, Ragweed",[18]; 125 g ai/ha,0
same,"Plant response rating, Ragweed",[18]; 500 g ai/ha,0
N#Cc1cccc(Oc2ncc(Cl)cn2)c1Oc1ccc(C(F)(F)F)cn1 [Compound 14],"Plant response rating, Rice",rice (Oryza sativa),15
same,"Plant response rating, Barnyardgrass",[1],0
same,"Plant response rating, Sedge, Umbrella",[2],0
same,"Plant response rating, Ducksalad",[3],30
same,"Plant response rating, Kochia",kochia (Kochia scoparia) [4]; 31 g ai/ha,0
same,"Plant response rating, Kochia",kochia (Kochia scoparia) [4]; 125 g ai/ha,0
same,"Plant response rating, Ryegrass, Italian",[5]; 31 g ai/ha,0
same,"Plant response rating, Ryegrass, Italian",[5]; 125 g ai/ha,0
same,"Plant response rating, Galium",[6]; 31 g ai/ha,40
same,"Plant response rating, Galium",[6]; 125 g ai/ha,50
same,"Plant response rating, Wheat",[7]; 31 g ai/ha,0
same,"Plant response rating, Wheat",[7]; 125 g ai/ha,0
same,"Plant response rating, Pigweed",[8]; 31 g ai/ha,0
same,"Plant response rating, Pigweed",[8]; 125 g ai/ha,50
same,"Plant response rating, Blackgrass",[9]; 31 g ai/ha,0
same,"Plant response rating, Blackgrass",[9]; 125 g ai/ha,30
same,"Plant response rating, Barnyardgrass",[10]; 31 g ai/ha,0
same,"Plant response rating, Barnyardgrass",[10]; 125 g ai/ha,0
same,"Plant response rating, Foxtail, Giant",[11]; 31 g ai/ha,0
same,"Plant response rating, Foxtail, Giant",[11]; 125 g ai/ha,20
same,"Plant response rating, Ragweed",[12]; 31 g ai/ha,0
same,"Plant response rating, Ragweed",[12]; 125 g ai/ha,0
same,"Plant response rating, Corn",corn (Zea mays); 31 g ai/ha,0
same,"Plant response rating, Corn",corn (Zea mays); 125 g ai/ha,0
same,Kochia plant response rating,kochia (Kochia scoparia) [13]; 31 g ai/ha,0
same,"Plant response rating, Kochia",kochia (Kochia scoparia) [13]; 125 g ai/ha,0
same,"Ryegrass, Italian plant response rating",[14]; 31 g ai/ha,0
same,"Plant response rating, Ryegrass, Italian",[14]; 125 g ai/ha,0
same,Pigweed plant response rating,[15]; 31 g ai/ha,40
same,"Plant response rating, Pigweed",[15]; 125 g ai/ha,80
same,Barnyardgrass plant response rating,[16],0
same,"Plant response rating, Barnyardgrass",[16]; 125 g ai/ha,0
same,"Foxtail, Giant plant response rating",[17]; 31 g ai/ha,0
same,"Plant response rating, Foxtail, Giant",[17]; 125 g ai/ha,0
same,Ragweed plant response rating,[18]; 31 g ai/ha,0
same,"Plant response rating, Ragweed",[18]; 125 g ai/ha,0
N#Cc1cccc(Oc2ncc(Cl)cn2)c1Oc1ccc(C(F)(F)F)nn1 [Compound 26],"Plant response rating, Rice",rice (Oryza sativa),0
same,"Plant response rating, Barnyardgrass",[1],0
same,"Plant response rating, Sedge, Umbrella",[2],60
same,"Plant response rating, Ducksalad",[3],70
same,"Plant response rating, Kochia",kochia (Kochia scoparia) [4]; 31 g ai/ha,40
same,"Plant response rating, Kochia",kochia (Kochia scoparia) [4]; 125 g ai/ha,60
same,"Plant response rating, Ryegrass, Italian",[5]; 31 g ai/ha,0
same,"Plant response rating, Ryegrass, Italian",[5]; 125 g ai/ha,0
same,"Plant response rating, Galium",[6]; 31 g ai/ha,30
same,"Plant response rating, Galium",[6]; 125 g ai/ha,50
same,"Plant response rating, Wheat",[7]; 31 g ai/ha,0
same,"Plant response rating, Wheat",[7]; 125 g ai/ha,10
same,"Plant response rating, Pigweed",[8]; 31 g ai/ha,50
same,"Plant response rating, Pigweed",[8]; 125 g ai/ha,80
same,"Plant response rating, Blackgrass",[9]; 31 g ai/ha,0
same,"Plant response rating, Blackgrass",[9]; 125 g ai/ha,30
same,"Plant response rating, Barnyardgrass",[10]; 31 g ai/ha,0
same,"Plant response rating, Barnyardgrass",[10]; 125 g ai/ha,20
same,"Plant response rating, Foxtail, Giant",[11]; 31 g ai/ha,10
same,"Plant response rating, Foxtail, Giant",[11]; 125 g ai/ha,30
same,"Plant response rating, Ragweed",[12]; 31 g ai/ha,30
same,"Plant response rating, Ragweed",[12]; 125 g ai/ha,30
same,"Plant response rating, Corn",corn (Zea mays); 31 g ai/ha,0
same,"Plant response rating, Corn",corn (Zea mays); 125 g ai/ha,20
same,Kochia plant response rating,kochia (Kochia scoparia) [13]; 31 g ai/ha,20
same,Kochia plant response rating,kochia (Kochia scoparia) [13]; 125 g ai/ha,30
same,"Ryegrass, Italian plant response rating",[14]; 31 g ai/ha,0
same,"Ryegrass, Italian plant response rating",[14]; 125 g ai/ha,0
same,Pigweed plant response rating,[15]; 31 g ai/ha,90
same,Pigweed plant response rating,[15]; 125 g ai/ha,100
same,Barnyardgrass plant response rating,[16],0
same,"Plant response rating, Barnyardgrass",[16]; 125 g ai/ha,20
same,"Foxtail, Giant plant response rating",[17]; 31 g ai/ha,20
same,"Foxtail, Giant plant response rating",[17]; 125 g ai/ha,60
same,Ragweed plant response rating,[18]; 31 g ai/ha,0
same,Ragweed plant response rating,[18]; 125 g ai/ha,20
